What was measured:
[1] = Inhibition of IL-23 induced STAT phosphorylation in HEK293 cells by Western blotting analysis; type: cell-based; details: Homo sapiens
[2] = Inhibition of IFNalpha induced STAT phosphorylation in HEK293 cells by Western blotting analysis; type: cell-based; details: Homo sapiens
[3] = biological target: T1, Tyrosine-protein kinase JAK1 (Homo sapiens, UniProt P23458); test: Binding affinity to JAK1 JH2 (unknown origin)
[4] = biological target: T2, Non-receptor tyrosine-protein kinase TYK2 (Homo sapiens, UniProt P29597); test: Binding affinity to TYK2 JH2 (unknown origin)
T2 sequence (P29597 whole entry): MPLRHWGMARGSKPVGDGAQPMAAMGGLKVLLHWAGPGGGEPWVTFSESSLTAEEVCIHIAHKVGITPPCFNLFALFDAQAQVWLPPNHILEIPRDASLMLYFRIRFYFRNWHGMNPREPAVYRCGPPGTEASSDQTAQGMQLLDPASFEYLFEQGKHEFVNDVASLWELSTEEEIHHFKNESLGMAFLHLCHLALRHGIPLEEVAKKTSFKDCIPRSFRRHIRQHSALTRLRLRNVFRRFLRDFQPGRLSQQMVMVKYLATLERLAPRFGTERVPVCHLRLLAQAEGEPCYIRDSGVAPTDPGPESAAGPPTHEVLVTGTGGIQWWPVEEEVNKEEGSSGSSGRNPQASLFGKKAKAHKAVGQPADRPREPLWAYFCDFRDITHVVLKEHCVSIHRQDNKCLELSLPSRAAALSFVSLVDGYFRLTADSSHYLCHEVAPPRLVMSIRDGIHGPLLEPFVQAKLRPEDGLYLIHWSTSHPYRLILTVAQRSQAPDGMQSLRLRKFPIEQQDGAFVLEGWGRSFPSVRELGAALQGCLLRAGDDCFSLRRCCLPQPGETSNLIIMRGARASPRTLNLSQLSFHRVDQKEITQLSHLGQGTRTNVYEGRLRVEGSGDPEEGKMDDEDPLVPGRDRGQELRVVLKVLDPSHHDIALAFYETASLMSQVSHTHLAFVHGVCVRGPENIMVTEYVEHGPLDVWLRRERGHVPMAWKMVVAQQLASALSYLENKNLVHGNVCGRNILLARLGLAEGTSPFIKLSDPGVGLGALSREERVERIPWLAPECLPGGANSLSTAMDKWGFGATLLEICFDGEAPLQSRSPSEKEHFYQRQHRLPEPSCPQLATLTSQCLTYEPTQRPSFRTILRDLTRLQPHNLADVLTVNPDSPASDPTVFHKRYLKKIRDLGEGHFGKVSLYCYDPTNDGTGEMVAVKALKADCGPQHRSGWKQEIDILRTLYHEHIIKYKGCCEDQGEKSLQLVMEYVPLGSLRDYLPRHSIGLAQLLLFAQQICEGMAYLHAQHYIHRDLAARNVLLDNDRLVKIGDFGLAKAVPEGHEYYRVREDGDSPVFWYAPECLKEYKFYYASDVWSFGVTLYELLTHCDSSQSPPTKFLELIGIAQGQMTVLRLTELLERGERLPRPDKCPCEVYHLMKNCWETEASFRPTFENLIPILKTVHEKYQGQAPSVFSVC

[5] = biological target: T3, Tyrosine-protein kinase JAK2 (Homo sapiens, UniProt O60674); test: Binding affinity to JAK2 JH1 (unknown origin)
T3 sequence (O60674 whole entry): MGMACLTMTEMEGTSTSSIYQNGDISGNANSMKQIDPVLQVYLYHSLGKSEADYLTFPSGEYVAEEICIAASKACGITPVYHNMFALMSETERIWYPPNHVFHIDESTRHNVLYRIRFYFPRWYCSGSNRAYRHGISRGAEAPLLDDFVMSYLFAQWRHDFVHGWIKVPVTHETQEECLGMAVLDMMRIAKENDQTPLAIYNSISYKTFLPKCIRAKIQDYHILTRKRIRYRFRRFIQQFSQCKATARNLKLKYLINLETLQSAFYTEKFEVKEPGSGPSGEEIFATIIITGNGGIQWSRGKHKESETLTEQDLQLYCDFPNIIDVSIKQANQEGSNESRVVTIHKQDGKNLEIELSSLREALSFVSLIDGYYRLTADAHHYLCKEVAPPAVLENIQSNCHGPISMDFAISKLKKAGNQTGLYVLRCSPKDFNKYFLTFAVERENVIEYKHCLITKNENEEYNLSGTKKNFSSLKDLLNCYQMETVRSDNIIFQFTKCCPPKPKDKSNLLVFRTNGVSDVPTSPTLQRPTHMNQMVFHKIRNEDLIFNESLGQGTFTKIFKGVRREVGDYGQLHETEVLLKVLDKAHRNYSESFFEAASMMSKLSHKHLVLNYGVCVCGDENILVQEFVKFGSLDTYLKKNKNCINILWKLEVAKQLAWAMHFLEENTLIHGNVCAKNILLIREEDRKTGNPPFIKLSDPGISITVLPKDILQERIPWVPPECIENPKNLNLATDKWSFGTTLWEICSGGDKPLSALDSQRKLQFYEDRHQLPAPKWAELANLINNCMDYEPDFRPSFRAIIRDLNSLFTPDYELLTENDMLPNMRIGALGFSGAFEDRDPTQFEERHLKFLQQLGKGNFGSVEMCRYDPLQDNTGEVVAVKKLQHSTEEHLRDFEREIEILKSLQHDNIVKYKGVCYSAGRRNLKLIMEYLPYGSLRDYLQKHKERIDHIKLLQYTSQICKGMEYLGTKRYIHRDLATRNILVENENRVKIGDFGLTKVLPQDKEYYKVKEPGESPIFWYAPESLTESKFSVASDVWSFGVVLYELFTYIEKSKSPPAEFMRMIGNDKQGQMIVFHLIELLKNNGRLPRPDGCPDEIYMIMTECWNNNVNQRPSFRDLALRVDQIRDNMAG

[6] = biological target: T2, Non-receptor tyrosine-protein kinase TYK2; test: Inhibition of TYK2 signal transduction pathway in human PBMC cells assessed as IFNalpha induced p-STAT5 level; type: cell-based
[7] = biological target: T2, Non-receptor tyrosine-protein kinase TYK2; test: Inhibition of TYK2 signal transduction pathway in human PBMC cells assessed as reduction in GM-CSF induced p-STAT5 level; type: cell-based
[8] = biological target: T2, Non-receptor tyrosine-protein kinase TYK2; test: Inhibition of TYK2 signal transduction pathway in human PBMC cells assessed as IL-2 induced p-STAT5 level; type: cell-based
[9] = biological target: T1, Tyrosine-protein kinase JAK1; test: Inhibition of human recombinant JAK1 preincubated for 15 mins followed by substrate addition measured after 60 mins by HTRF assay
[10] = biological target: T3, Tyrosine-protein kinase JAK2; test: Inhibition of human recombinant JAK2 preincubated for 15 mins followed by substrate addition measured after 60 mins by HTRF assay
[11] = biological target: T4, Tyrosine-protein kinase JAK3 (Homo sapiens, UniProt P52333); test: Inhibition of human recombinant JAK3 preincubated for 15 mins followed by substrate addition measured after 60 mins by HTRF assay
T4 sequence (P52333 whole entry): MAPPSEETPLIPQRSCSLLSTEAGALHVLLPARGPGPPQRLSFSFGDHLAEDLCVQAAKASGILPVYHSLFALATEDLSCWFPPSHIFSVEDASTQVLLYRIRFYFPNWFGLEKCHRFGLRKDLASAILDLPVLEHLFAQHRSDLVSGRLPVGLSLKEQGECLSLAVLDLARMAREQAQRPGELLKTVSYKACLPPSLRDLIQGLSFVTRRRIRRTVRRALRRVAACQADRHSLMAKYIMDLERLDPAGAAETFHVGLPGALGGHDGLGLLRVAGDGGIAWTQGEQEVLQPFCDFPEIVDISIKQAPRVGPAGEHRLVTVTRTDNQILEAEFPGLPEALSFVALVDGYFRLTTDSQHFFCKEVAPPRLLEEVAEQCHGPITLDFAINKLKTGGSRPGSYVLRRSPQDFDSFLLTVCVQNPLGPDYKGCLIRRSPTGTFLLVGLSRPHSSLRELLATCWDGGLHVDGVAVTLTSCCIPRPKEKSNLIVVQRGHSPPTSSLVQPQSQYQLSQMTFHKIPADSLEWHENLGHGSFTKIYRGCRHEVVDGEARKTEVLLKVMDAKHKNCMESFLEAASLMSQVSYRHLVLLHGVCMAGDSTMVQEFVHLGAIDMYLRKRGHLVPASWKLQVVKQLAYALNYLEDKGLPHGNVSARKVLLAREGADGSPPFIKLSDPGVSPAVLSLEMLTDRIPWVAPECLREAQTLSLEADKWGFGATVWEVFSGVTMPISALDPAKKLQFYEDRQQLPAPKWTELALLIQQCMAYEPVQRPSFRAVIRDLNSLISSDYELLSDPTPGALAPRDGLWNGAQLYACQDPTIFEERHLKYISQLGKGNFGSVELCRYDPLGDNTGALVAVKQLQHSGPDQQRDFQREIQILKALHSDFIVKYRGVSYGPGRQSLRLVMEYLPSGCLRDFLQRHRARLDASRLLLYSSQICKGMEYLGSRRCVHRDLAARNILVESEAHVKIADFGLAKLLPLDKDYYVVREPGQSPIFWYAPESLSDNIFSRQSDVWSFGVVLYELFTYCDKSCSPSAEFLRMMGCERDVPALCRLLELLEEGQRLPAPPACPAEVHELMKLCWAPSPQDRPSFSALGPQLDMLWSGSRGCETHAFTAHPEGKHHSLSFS

[12] = biological target: T2, Non-receptor tyrosine-protein kinase TYK2; test: Inhibition of human recombinant TYK2 preincubated for 15 mins followed by substrate addition measured after 60 mins by HTRF assay
JAK2/TYK2 [13] = biological target: T5, JAK2/TYK2 (Homo sapiens, UniProt O60674+P29597); test: Inhibition of JAK2/TYK2 signal transduction pathway in human NK92 cells assessed as […] induced IFNgamma expression incubated for 24 hrs by ELISA assay; type: cell-based
T5 sequence (O60674 whole entry, the tested form may be a part): as the sequence (O60674 whole entry) above
T5 sequence (P29597 whole entry, the tested form may be a part): as the sequence (P29597 whole entry) above

[14] = biological target: T2, Non-receptor tyrosine-protein kinase TYK2; test: Binding affinity to human wild-type partial length TYK2 JH2 (G556 to D888 residues) expressed in mammalian expression system by KINOMEscan assay
[15] = biological target: T2, Non-receptor tyrosine-protein kinase TYK2; test: Inhibition of TYK2 JH2 in human KIT225 cells assessed as reduction of IFNalpha induced STAT1 phosphorylation by AlphaLISA assay; type: cell-based
[16] = biological target: T3, Tyrosine-protein kinase JAK2; test: Inhibition of JAK2 JH1 (unknown origin) at 10 uM relative to control
[17] = biological target: T2, Non-receptor tyrosine-protein kinase TYK2; test: Inhibition of TYK2 JH1 (unknown origin) at 10 uM relative to control
JAK2/TYK2 [18] = biological target: T5, JAK2/TYK2; test: Inhibition of JAK2/TYK2 signal transduction pathway in human PBMC cells assessed as IL-12 induced p-STAT4 level incubated for 30 mins; type: cell-based
JAK2/TYK2 [19] = biological target: T5, JAK2/TYK2; test: Inhibition of JAK2/TYK2 signal transduction pathway in human PBMC cells assessed as reduction in GM-CSF induced p-STAT5 level incubated for 20 mins; type: cell-based
[20] = biological target: T2, Non-receptor tyrosine-protein kinase TYK2; test: Inhibition of TYK2 JH2 in human TF-1 cells assessed as reduction of IFNalpha induced STAT1 phosphorylation; type: cell-based
JAK2/TYK2 [21] = biological target: T5, JAK2/TYK2; test: Inhibition of JAK2/TYK2 signal transduction pathway in human NK92 cells assessed as IL-12 induced STAT4 phosphorylation; type: cell-based
[22] = biological target: T2, Non-receptor tyrosine-protein kinase TYK2; test: Inhibition of TYK2 signal transduction pathway in human TF-1 cells assessed as reduction in GM-CSF induced p-STAT5 level; type: cell-based
[23] = Half life in mouse at 10 mg/kg, po measured upto 24 hrs by LC-MS/MS analysis; type: ADME, organism-based; details: in vivo
[24] = Cmax in mouse at 10 mg/kg, po measured upto 24 hrs by LC-MS/MS analysis; type: ADME, organism-based; parameters: time < 24 hrs, dose 10 mg/kg, route po; details: in vivo
[25] = AUClast in mouse at 10 mg/kg, po measured upto 24 hrs by LC-MS/MS analysis; type: ADME, organism-based; parameters: dose 10 mg/kg, time < 24 hrs, route po; details: in vivo
[26] = Inhibition of IFNalpha induced STAT phosphorylation in human whole blood by fluorescence based analysis; type: tissue-based
[27] = biological target: T2, Non-receptor tyrosine-protein kinase TYK2; test: Inhibition of TYK2 JH2 (unknown origin) by scintillation proximity assay

T1 sequence (P23458 whole entry): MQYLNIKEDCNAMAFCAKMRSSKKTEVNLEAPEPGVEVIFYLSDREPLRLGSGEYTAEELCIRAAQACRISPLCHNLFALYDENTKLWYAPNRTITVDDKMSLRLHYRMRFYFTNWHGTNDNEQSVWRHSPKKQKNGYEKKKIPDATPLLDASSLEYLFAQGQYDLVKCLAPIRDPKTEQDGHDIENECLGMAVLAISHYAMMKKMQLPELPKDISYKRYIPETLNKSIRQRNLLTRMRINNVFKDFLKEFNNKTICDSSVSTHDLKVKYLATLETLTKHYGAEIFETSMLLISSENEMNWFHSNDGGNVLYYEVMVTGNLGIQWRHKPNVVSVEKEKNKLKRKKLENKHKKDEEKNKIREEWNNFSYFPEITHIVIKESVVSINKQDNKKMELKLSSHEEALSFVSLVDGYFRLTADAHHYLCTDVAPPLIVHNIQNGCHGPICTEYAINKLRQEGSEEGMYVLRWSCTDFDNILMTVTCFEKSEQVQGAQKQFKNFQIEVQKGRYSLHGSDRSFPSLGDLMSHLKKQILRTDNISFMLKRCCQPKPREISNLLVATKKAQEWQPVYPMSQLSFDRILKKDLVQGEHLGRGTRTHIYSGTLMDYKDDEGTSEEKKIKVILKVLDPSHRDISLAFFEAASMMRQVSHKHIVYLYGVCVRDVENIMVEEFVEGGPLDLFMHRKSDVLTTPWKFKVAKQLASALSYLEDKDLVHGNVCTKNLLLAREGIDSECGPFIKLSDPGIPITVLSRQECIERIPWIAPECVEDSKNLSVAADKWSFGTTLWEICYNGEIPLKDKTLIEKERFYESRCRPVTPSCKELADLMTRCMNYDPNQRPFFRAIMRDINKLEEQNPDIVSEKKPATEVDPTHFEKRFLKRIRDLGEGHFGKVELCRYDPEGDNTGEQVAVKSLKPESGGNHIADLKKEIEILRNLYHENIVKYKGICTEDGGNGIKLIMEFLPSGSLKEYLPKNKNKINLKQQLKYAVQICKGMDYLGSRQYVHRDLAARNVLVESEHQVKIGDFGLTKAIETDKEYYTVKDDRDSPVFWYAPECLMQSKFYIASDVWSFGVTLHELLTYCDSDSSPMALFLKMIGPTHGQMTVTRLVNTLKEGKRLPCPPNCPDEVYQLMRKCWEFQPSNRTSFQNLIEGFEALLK

## COC(=O)c1nnc(NC(=O)C2CC2)cc1Nc1cccc2c1N(C)Cc1cn(C)nc1-2
[1]
  IC50: < 30 nM
[2]
  IC50: < 30 nM

## [2H]C([2H])([2H])CC(=O)c1cnc(NC(=O)C2CC2)cc1Nc1nccc(-c2ncn(C([2H])([2H])[2H])n2)c1OC
[3]
  Kd: ≤ 100 nM
[4]
  Kd: ≤ 10 nM
[5]
  Kd: ≤ 1000 nM
[6]
  IC50: < 100 nM
[7]
  IC50: > 10000 nM
[8]
  IC50: ≤ 1000 nM

## O=C(Nc1cc2c(cn1)c(=O)[nH]n2-c1ccccc1)C1CC1
[1]
  IC50: < 10000 nM
[2]
  IC50: < 10000 nM

## NC(=O)c1nnc(-c2c(F)cccc2Cl)cc1Nc1ccc(N2CCOCC2)cc1
[9]
  IC50: 37 nM
[10]
  IC50: 9 nM
[11]
  IC50: 11 nM
[12]
  IC50: 0.2 nM
JAK2/TYK2 [13]
  IC50: 0.4 nM

## [2H]C([2H])([2H])NC(=O)c1nnc(Nc2ccc(N3CC(O)C3)cn2)cc1Nc1cccc(-c2ncn(C)n2)c1OC
[14]
  Kd: 0.005 nM
[15]
  IC50: 83 nM

## CNc1cc(Nc2cccn(-c3cnc(C(C)(C)O)cn3)c2=O)nc2c(C(=O)NC3CCC3)cnn12
[14]
  Kd: < 0.2 nM
[3]
  Kd: 5000 nM
[16]
  inhibition: < 50%
[17]
  inhibition: < 50%
JAK2/TYK2 [18]
  IC50: < 500 nM
JAK2/TYK2 [19]
  IC50: < 500 nM

## CNc1cc(Nc2ccccc2OC)nc2c(C(=O)N[C@@H]3CCN(C)C3=O)cnn12
[20]
  IC50: 8 nM

## COc1cc(Nc2cc(NC(C)=O)ncc2-c2ccc(C(C)(C)O)cn2)nc(S(C)(=O)=O)c1
JAK2/TYK2 [21]
  IC50: 1 nM
[22]
  IC50: > 10000 nM
[23]
  half-life: 2.07 h
[24]
  Cmax: 8.73 ng/mL
[25]
  AUC(0-t) at 24 h: 19.3 ng·h/mL

## [2H]C([2H])([2H])NC(=O)c1nnc(Nc2ccc(C(C)(C)O)cn2)cc1Nc1nc(C)ccc1S(C)(=O)=O
[26]
  IC50: 6 nM

## CNc1cc(Nc2cccc3c2OCCC3)nc2c(C(=O)N[C@@H]3CCN(C)C3=O)cnn12
[27]
  IC50: < 254 nM
[20]
  IC50: 7 nM

## [2H]C([2H])([2H])NC(=O)c1nnc(Nc2ccc(F)cn2)cc1Nc1cccc2c1N(C)Cc1n[nH]c(=O)n1-2
[1]
  IC50: < 30 nM
[2]
  IC50: < 30 nM

## CNc1cc(Nc2cccnc2OC)nc2c(C(=O)NCC3(CO)CC3)cnn12
[14]
  Kd: < 0.2 nM
[3]
  Kd: 5000 nM
[16]
  inhibition: < 50%
[17]
  inhibition: < 50%
JAK2/TYK2 [18]
  IC50: < 500 nM
JAK2/TYK2 [19]
  IC50: < 500 nM

## COc1cc(Nc2cc(NC(C)=O)ncc2-c2ccc(F)cn2)nc(S(C)(=O)=O)c1
JAK2/TYK2 [21]
  IC50: 1.82 nM
[22]
  IC50: > 10000 nM
[23]
  half-life: 1.48 h
[24]
  Cmax: 911 ng/mL
[25]
  AUC(0-t) at 24 h: 2100 ng·h/mL

## [2H]C([2H])([2H])n1nnc2c3cc(cc21)CO[C@@H]1CCC[C@H]1NC(=O)c1cnc2c(NC)cc(nn12)N3
[4]
  Kd: 0.002 nM
[6]
  IC50: 1.7 nM

## [2H]C([2H])([2H])NC(=O)c1nnc(NC(=O)C2CC2)cc1Nc1cccc(-c2nc(CN3CCN(S(C)(=O)=O)CC3)no2)c1OC
[26]
  IC50: 30 nM

## COc1cc(Nc2cc(NC(C)=O)ncc2-c2ccc3c(n2)OCC(C)(C)O3)nc(S(C)(=O)=O)c1
JAK2/TYK2 [21]
  IC50: 0.053 nM
[22]
  IC50: 1820 nM
[23]
  half-life: 3.01 h
[24]
  Cmax: 2820 ng/mL
[25]
  AUC(0-t) at 24 h: 16200 ng·h/mL

## CNc1cc2nn3c(cnc13)C(=O)N[C@H](C)COCc1ccc(OC)c(c1)N2
[3]
  Kd: 430 nM
[4]
  Kd: 0.002 nM
[5]
  Kd: 7300 nM
[6]
  IC50: 1.2 nM
[8]
  IC50: > 10000 nM

## [2H]C([2H])([2H])NC(=O)c1nnc(NC(=O)C2CC2)cc1Nc1cccc2c1N(C)Cc1nc(C)nn1-2
[1]
  IC50: < 30 nM
[2]
  IC50: < 30 nM

Reference: ChEMBL document CHEMBL5380830, “Development and Therapeutic Implications of Tyrosine Kinase 2 Inhibitors” (J Med Chem, 2023)
